System: MV-4-11 cells
Assay: Gene expression microarray analysis (Affymetrix PrimeView) and GSEA
Assay type: cell-based, human
Set-up: RFU PODN (11730768_x_at) / Fold change /veh PODN (11730768_x_at) / RFU LINC00158 (11744669_a_at) / Fold change /veh LINC00158 (11744669_a_at) / RFU DUSP10 (11751237_a_at) / Fold change /veh DUSP10 (11751237_a_at) / RFU ID3 (11757404_x_at) / Fold change /veh ID3 (11757404_x_at) / RFU PLEKHG5 (11737974_s_at) / Fold change /veh PLEKHG5 (11737974_s_at) / RFU LRRC4B (11730491_at) / Fold change /veh LRRC4B (11730491_at) / RFU GIMAP4 (11747438_a_at) / Fold change /veh GIMAP4 (11747438_a_at) / RFU KRT8 (11758183_x_at) / Fold change /veh KRT8 (11758183_x_at) / RFU CNN1 (11734310_a_at) / Fold change /veh CNN1 (11734310_a_at) / RFU VPS37D (11726825_at) / Fold change /veh VPS37D (11726825_at) / RFU C10orf10 (11716522_x_at) / Fold change /veh C10orf10 (11716522_x_at) / RFU KIR2DL2 /// KIR2DL4 /// KIR2DL5A /// KIR2DL5B /// KIR2DS1 /// KIR2DS2 /// KIR2DS3 /// KIR2DS4 /// KIR3DL3 /// KIR3DL3 /// KIR3DS1 (11738374_at) / Fold change /veh KIR2DL2 /// KIR2DL4 /// KIR2DL5A /// KIR2DL5B /// KIR2DS1 /// KIR2DS2 /// KIR2DS3 /// KIR2DS4 /// KIR3DL3 /// KIR3DL3 /// KIR3DS1 (11738374_at) / RFU C1QL1 (11718748_at) / Fold change /veh C1QL1 (11718748_at) / RFU TMPRSS4 (11747572_a_at) / Fold change /veh TMPRSS4 (11747572_a_at) / RFU HAMP (11756126_x_at) / Fold change /veh HAMP (11756126_x_at) / RFU RNFT2 (11725882_a_at) / Fold change /veh RNFT2 (11725882_a_at) / RFU NR4A2 (11747474_a_at) / Fold change /veh NR4A2 (11747474_a_at) / RFU ABCC12 (11746883_a_at) / Fold change /veh ABCC12 (11746883_a_at) / RFU TMEM136 (11760407_x_at) / Fold change /veh TMEM136 (11760407_x_at) / RFU CLDN22 /// WWC2 (11732394_at) / Fold change /veh CLDN22 /// WWC2 (11732394_at) / RFU HLA-DPB1 (11760878_x_at) / Fold change /veh HLA-DPB1 (11760878_x_at) / RFU SPINT1 (11716480_a_at) / Fold change /veh SPINT1 (11716480_a_at) / RFU GAP43 (11754022_s_at) / Fold change /veh GAP43 (11754022_s_at) / RFU A4GNT (11735810_at) / Fold change /veh A4GNT (11735810_at) / RFU PRB3 (11715151_x_at) / Fold change /veh PRB3 (11715151_x_at) / RFU TUBB4B (11761932_at) / Fold change /veh TUBB4B (11761932_at) / RFU CAPN14 (11732068_a_at) / Fold change /veh CAPN14 (11732068_a_at) / RFU TMCC2 (11721928_a_at) / Fold change /veh TMCC2 (11721928_a_at) / RFU IRGQ (11745062_a_at) / Fold change /veh IRGQ (11745062_a_at) / RFU FAM174B (11720279_a_at) / Fold change /veh FAM174B (11720279_a_at) / RFU TMPRSS4 (11748680_a_at) / Fold change /veh TMPRSS4 (11748680_a_at) / RFU FAM212B (11763350_a_at) / Fold change /veh FAM212B (11763350_a_at) / RFU PLEKHG5 (11743358_a_at) / Fold change /veh PLEKHG5 (11743358_a_at) / RFU ZSCAN30 (11745921_a_at) / Fold change /veh ZSCAN30 (11745921_a_at) / RFU CMKLR1 (11741424_a_at) / Fold change /veh CMKLR1 (11741424_a_at) / RFU LOC101060620 /// MAPK8IP1 (11723275_at) / Fold change /veh LOC101060620 /// MAPK8IP1 (11723275_at) / RFU SPTSSB (11747773_x_at) / Fold change /veh SPTSSB (11747773_x_at) / RFU PRSS12 (11739890_at) / Fold change /veh PRSS12 (11739890_at) / RFU BIN1 (11741810_x_at) / Fold change /veh BIN1 (11741810_x_at) / RFU WNT11 (11732464_a_at) / Fold change /veh WNT11 (11732464_a_at) / RFU C10orf10 (11716521_a_at) / Fold change /veh C10orf10 (11716521_a_at) / RFU C5orf56 (11738089_at) / Fold change /veh C5orf56 (11738089_at) / RFU CYB561 (11721691_x_at) / Fold change /veh CYB561 (11721691_x_at) / RFU ANKRD19P (11752326_a_at) / Fold change /veh ANKRD19P (11752326_a_at) / RFU OR2T12 /// OR2T33 /// OR2T8 (11738714_s_at) / Fold change /veh OR2T12 /// OR2T33 /// OR2T8 (11738714_s_at) / RFU VCAN (11748164_a_at) / Fold change /veh VCAN (11748164_a_at) / RFU JSRP1 (11732532_at) / Fold change /veh JSRP1 (11732532_at) / RFU KRTAP10-11 (11738290_x_at) / Fold change /veh KRTAP10-11 (11738290_x_at) / RFU MYO3A (11730013_a_at) / Fold change /veh MYO3A (11730013_a_at) / RFU EBF3 (11725865_a_at) / Fold change /veh EBF3 (11725865_a_at) / RFU CAMK2N1 (11719241_x_at) / Fold change /veh CAMK2N1 (11719241_x_at) / RFU C5orf56 (11738088_a_at) / Fold change /veh C5orf56 (11738088_a_at) / RFU OLFML3 (11715873_a_at) / Fold change /veh OLFML3 (11715873_a_at) / RFU LOC100653217 /// NTM (11731650_a_at) / Fold change /veh LOC100653217 /// NTM (11731650_a_at) / RFU MAPK11 (11762145_a_at) / Fold change /veh MAPK11 (11762145_a_at) / RFU FIZ1 (11724087_x_at) / Fold change /veh FIZ1 (11724087_x_at) / RFU OASL (11726364_x_at) / Fold change /veh OASL (11726364_x_at) / RFU SOX15 (11748057_x_at) / Fold change /veh SOX15 (11748057_x_at) / RFU CD79A (11719716_a_at) / Fold change /veh CD79A (11719716_a_at) / RFU HIST1H1D (11736915_at) / Fold change /veh HIST1H1D (11736915_at) / RFU CASKIN2 (11723855_a_at) / Fold change /veh CASKIN2 (11723855_a_at) / RFU LOC730098 (11760151_x_at) / Fold change /veh LOC730098 (11760151_x_at) / RFU OR4N2 (11742367_at) / Fold change /veh OR4N2 (11742367_at) / RFU PRRT2 (11749266_a_at) / Fold change /veh PRRT2 (11749266_a_at) / RFU SNX32 (11753110_a_at) / Fold change /veh SNX32 (11753110_a_at) / RFU CDHR5 (11726645_a_at) / Fold change /veh CDHR5 (11726645_a_at) / RFU RCAN1 (11760418_a_at) / Fold change /veh RCAN1 (11760418_a_at) / RFU FAM167A (11723789_a_at) / Fold change /veh FAM167A (11723789_a_at) / RFU FAM26E (11764081_at) / Fold change /veh FAM26E (11764081_at) / RFU ISYNA1 (11749810_s_at) / Fold change /veh ISYNA1 (11749810_s_at) / RFU ACY1 (11761880_at) / Fold change /veh ACY1 (11761880_at) / RFU 11764098_at / Fold change /veh 11764098_at / RFU SAMD14 (11745864_x_at) / Fold change /veh SAMD14 (11745864_x_at) / RFU NPB (11741838_a_at) / Fold change /veh NPB (11741838_a_at) / RFU TMPRSS6 (11731388_a_at) / Fold change /veh TMPRSS6 (11731388_a_at) / RFU KRTAP10-2 (11738614_at) / Fold change /veh KRTAP10-2 (11738614_at) / RFU ARHGAP8 /// PRR5-ARHGAP8 (11727945_x_at) / Fold change /veh ARHGAP8 /// PRR5-ARHGAP8 (11727945_x_at) / RFU KRTAP5-7 /// NADSYN1 (11734609_at) / Fold change /veh KRTAP5-7 /// NADSYN1 (11734609_at) / RFU RASL12 (11751679_a_at) / Fold change /veh RASL12 (11751679_a_at) / RFU CDKN2B (11736163_a_at) / Fold change /veh CDKN2B (11736163_a_at) / RFU PRF1 (11729649_at) / Fold change /veh PRF1 (11729649_at) / RFU, ZNF638 /// ZNF638-IT1 / Fold change vs veh, ZNF638 /// ZNF638-IT1 / RFU, PANK3 / Fold change vs veh, PANK3 / RFU, SH3YL1 / Fold change vs veh, SH3YL1 / RFU, ZEB2 / Fold change vs veh, ZEB2 / RFU, NRIP1 / Fold change vs veh, NRIP1 / RFU, PTTG1IP / Fold change vs veh, PTTG1IP / RFU, CAPN2 / Fold change vs veh, CAPN2 / RFU, MED14 / Fold change vs veh, MED14 / RFU, SNORA58 / Fold change vs veh, SNORA58 / RFU, C1orf63 / Fold change vs veh, C1orf63 / RFU, LRRFIP1 / Fold change vs veh, LRRFIP1 / RFU, NDUFAF7 / Fold change vs veh, NDUFAF7 / RFU, SLC12A2 / Fold change vs veh, SLC12A2 / RFU, IBTK / Fold change vs veh, IBTK / RFU, ESF1 / Fold change vs veh, ESF1 / Fold change vs veh, TMEM50B / RFU, TAOK1 / Fold change vs veh, TAOK1 / RFU, ACBD3 / Fold change vs veh, ACBD3 / RFU, TMA16 / Fold change vs veh, TMA16 / RFU, RWDD3 / Fold change vs veh, RWDD3 / RFU, BCAT1 / Fold change vs veh, BCAT1 / RFU, EDEM3 / Fold change vs veh, EDEM3 / RFU, TMEM33 / Fold change vs veh, TMEM33 / RFU, WDR75 / Fold change vs veh, WDR75 / RFU, AHCTF1 / Fold change vs veh, AHCTF1 / RFU, TFRC / Fold change vs veh, TFRC / RFU, ZDHHC17 / Fold change vs veh, ZDHHC17 / RFU, NOM1 / Fold change vs veh, NOM1 / RFU, ARL8B / Fold change vs veh, ARL8B / RFU, ZBTB11 / Fold change vs veh, ZBTB11 / RFU, TAMM41 / Fold change vs veh, TAMM41 / RFU, KIAA1704 /// LOC100996395 / Fold change vs veh, KIAA1704 /// LOC100996395 / RFU, ING1 / Fold change vs veh, ING1 / RFU, TRMT61B / Fold change vs veh, TRMT61B / RFU, FUBP3 / Fold change vs veh, FUBP3 / RFU, TP53 / Fold change vs veh, TP53 / RFU, TNKS2 / Fold change vs veh, TNKS2 / RFU, ZFP14 / Fold change vs veh, ZFP14 / RFU, ACTR2 / Fold change vs veh, ACTR2 / RFU, PPP3R1 / Fold change vs veh, PPP3R1 / RFU, PIK3R1 / Fold change vs veh, PIK3R1 / RFU, HNRNPA1 / Fold change vs veh, HNRNPA1 / RFU, RNF170 / Fold change vs veh, RNF170 / RFU, ZNF28 / Fold change vs veh, ZNF28 / RFU, RNGTT / Fold change vs veh, RNGTT / RFU, OGT / Fold change vs veh, OGT / RFU, BRD1 / Fold change vs veh, BRD1 / RFU, MARS / Fold change vs veh, MARS / RFU, ZNF655 / Fold change vs veh, ZNF655 / RFU, FAHD1 / Fold change vs veh, FAHD1 / RFU, BDP1 / Fold change vs veh, BDP1 / RFU, LRRCC1 / Fold change vs veh, LRRCC1 / RFU, ARID1A / Fold change vs veh, ARID1A / RFU, ZNF146 / Fold change vs veh, ZNF146 / RFU, ZNF330 / Fold change vs veh, ZNF330 / RFU, GPN3 / Fold change vs veh, GPN3 / RFU, C9orf123 / Fold change vs veh, C9orf123 / RFU, N4BP2L2 / Fold change vs veh, N4BP2L2 / RFU, ARFIP1 / Fold change vs veh, ARFIP1 / RFU, FAM179B / Fold change vs veh, FAM179B / RFU, BCL10 / Fold change vs veh, BCL10 / RFU, UHRF1BP1L / Fold change vs veh, UHRF1BP1L / RFU, BET1 / Fold change vs veh, BET1 / RFU, CNOT2 / Fold change vs veh, CNOT2 / RFU, ZNF268 / Fold change vs veh, ZNF268 / Fold change vs veh, ZNF507 / RFU, DGCR2 / Fold change vs veh, DGCR2 / RFU, WDSUB1 / Fold change vs veh, WDSUB1 / Fold change vs veh, HSP90B1 /// MIR3652 / RFU, ADSS / Fold change vs veh, ADSS / RFU, GK / Fold change vs veh, GK / RFU, ZNF148 / Fold change vs veh, ZNF148 / RFU, TAF9 / Fold change vs veh, TAF9 / RFU, SLC1A5 / Fold change vs veh, SLC1A5 / RFU, SLMO2 / Fold change vs veh, SLMO2 / RFU, ABCC4 / Fold change vs veh, ABCC4 / RFU, LOC101060439 /// RAP1B / Fold change vs veh, LOC101060439 /// RAP1B / RFU, RFX7 / Fold change vs veh, RFX7 / RFU, GTPBP10 / Fold change vs veh, GTPBP10 / RFU, CNEP1R1 / Fold change vs veh, CNEP1R1 / RFU, BIVM-ERCC5 /// ERCC5 / Fold change vs veh, BIVM-ERCC5 /// ERCC5 / RFU, ILF3 / Fold change vs veh, ILF3 / RFU 11762660_at / Fold change /veh 11762660_at / RFU VCAN (11757783_s_at) / Fold change /veh VCAN (11757783_s_at) / RFU DDX43 (11728927_at) / Fold change /veh DDX43 (11728927_at) / RFU KRT8 (11758188_x_at) / Fold change /veh KRT8 (11758188_x_at) / RFU NKD1 (11759106_at) / Fold change /veh NKD1 (11759106_at) / RFU SRD5A1 (11742802_a_at) / Fold change /veh SRD5A1 (11742802_a_at) / RFU TPSAB1 /// TPSB2 (11721975_s_at) / Fold change /veh TPSAB1 /// TPSB2 (11721975_s_at) / RFU GSTM3 (11746129_a_at) / Fold change /veh GSTM3 (11746129_a_at) / RFU IL23R (11737362_x_at) / Fold change /veh IL23R (11737362_x_at) / RFU TMEM51 (11727254_a_at) / Fold change /veh TMEM51 (11727254_a_at) / RFU PIWIL2 (11732686_x_at) / Fold change /veh PIWIL2 (11732686_x_at) / RFU ORM1 (11744905_x_at) / Fold change /veh ORM1 (11744905_x_at) / RFU CCDC152 (11743942_at) / Fold change /veh CCDC152 (11743942_at) / RFU ECM1 (11717891_a_at) / Fold change /veh ECM1 (11717891_a_at) / RFU IL23R (11748794_a_at) / Fold change /veh IL23R (11748794_a_at) / RFU TNFAIP8L3 (11732012_x_at) / Fold change /veh TNFAIP8L3 (11732012_x_at) / RFU MBOAT4 (11741988_at) / Fold change /veh MBOAT4 (11741988_at) / RFU 11764193_at / Fold change /veh 11764193_at / RFU TMEM53 (11763286_at) / Fold change /veh TMEM53 (11763286_at) / RFU MAGEB2 (11727129_at) / Fold change /veh MAGEB2 (11727129_at) / RFU TMEM200A (11744735_a_at) / Fold change /veh TMEM200A (11744735_a_at) / RFU CCDC152 (11751479_a_at) / Fold change /veh CCDC152 (11751479_a_at) / RFU FAM211A (11726209_a_at) / Fold change /veh FAM211A (11726209_a_at) / RFU RGS16 (11746705_a_at) / Fold change /veh RGS16 (11746705_a_at) / RFU VCAN (11755009_s_at) / Fold change /veh VCAN (11755009_s_at) / RFU RHOB (11743442_s_at) / Fold change /veh RHOB (11743442_s_at) / RFU RGS16 (11720943_a_at) / Fold change /veh RGS16 (11720943_a_at) / RFU RGS16 (11720944_at) / Fold change /veh RGS16 (11720944_at) / RFU, VPS4B / Fold change vs veh, VPS4B / RFU, CREB1 / Fold change vs veh, CREB1 / RFU, DNAJC13 / Fold change vs veh, DNAJC13 / RFU, GNAQ / Fold change vs veh, GNAQ / RFU, CDK5R1 / Fold change vs veh, CDK5R1 / RFU, ZRANB3 / Fold change vs veh, ZRANB3 / RFU, CUL4A / Fold change vs veh, CUL4A / RFU, CCNY / Fold change vs veh, CCNY / RFU, UFL1 / Fold change vs veh, UFL1 / RFU, COG3 / Fold change vs veh, COG3 / RFU, DIAPH2 / Fold change vs veh, DIAPH2 / RFU, SKA2 / Fold change vs veh, SKA2 / RFU, AFF3 / Fold change vs veh, AFF3 / RFU, LMF1 / Fold change vs veh, LMF1 / RFU, IPO11 / Fold change vs veh, IPO11 / RFU, DFFB / Fold change vs veh, DFFB / RFU, FOXP1 / Fold change vs veh, FOXP1 / RFU, CARD8 / Fold change vs veh, CARD8 / RFU, STRN3 / Fold change vs veh, STRN3 / RFU, ADK / Fold change vs veh, ADK / RFU, RASSF2 / Fold change vs veh, RASSF2 / RFU, WIPF1 / Fold change vs veh, WIPF1 / RFU, LARP1B / Fold change vs veh, LARP1B / RFU, RASA1 / Fold change vs veh, RASA1 / RFU, RB1 / Fold change vs veh, RB1 / RFU, PPFIA1 / Fold change vs veh, PPFIA1 / RFU, MAT2A / Fold change vs veh, MAT2A / RFU, CCT5 / Fold change vs veh, CCT5 / RFU, WDR92 / Fold change vs veh, WDR92 / RFU, CUX1 / Fold change vs veh, CUX1 / RFU, TTC7A / Fold change vs veh, TTC7A / RFU, TMEM135 / Fold change vs veh, TMEM135 / RFU, DEPTOR / Fold change vs veh, DEPTOR / RFU, CPM / Fold change vs veh, CPM / RFU, DNAJB6 / Fold change vs veh, DNAJB6 / RFU, CACNA2D3 / Fold change vs veh, CACNA2D3 / RFU, DTX4 / Fold change vs veh, DTX4 / RFU, TFCP2 / Fold change vs veh, TFCP2 / RFU, GMCL1 /// GMCL1P1 / Fold change vs veh, GMCL1 /// GMCL1P1 / RFU, AEBP2 / Fold change vs veh, AEBP2 / RFU, SNHG1 /// SNORD22 /// SNORD25 /// SNORD26 /// SNORD27 /// SNORD28 /// SNORD29 /// SNORD31 / Fold change vs veh, SNHG1 /// SNORD22 /// SNORD25 /// SNORD26 /// SNORD27 /// SNORD28 /// SNORD29 /// SNORD31 / Fold change (Aza/veh), C12orf56 (ProbeSet 11735607_a_at) / Fold change (ACY-1035/veh), C12orf56 (ProbeSet 11735607_a_at) / Fold change (Aza/veh), FGFR1OP (ProbeSet 11751329_s_at) / Fold change (ACY-1035/veh), FGFR1OP (ProbeSet 11751329_s_at) / Fold change (Aza/veh), VPS36 (ProbeSet 11739960_a_at) / Fold change (ACY-1035/veh), VPS36 (ProbeSet 11739960_a_at) / RFU SYPL1 (11715823_x_at) / Fold change /veh SYPL1 (11715823_x_at) / RFU IGFBP7 (11715501_s_at) / Fold change /veh IGFBP7 (11715501_s_at) / RFU REEP3 (11722064_at) / Fold change /veh REEP3 (11722064_at) / RFU IGLL1 (11728026_x_at) / Fold change /veh IGLL1 (11728026_x_at): dose or concentration left out as unconfirmed
Settings: MV-4-11 cells, 48 hours

`Nc1ccc(-c2cccs2)cc1NC(=O)c1ccc2c(c1)cc(C1CC1)n2CCN1CCOCC1` [ACY-1035] was tested, and the “RFU KRTAP10-11 (11738290_x_at)” value was 38.61 RFU.
